Entries after “also recorded” stand apart in the source; their conditions may differ. Read-outs that look alike come from different tables or passages of the source. *1 amine or outer side, *2 acyl side, *3 side chain or, on linkers, in order; H or OH if unused. Where a SMILES comes first, the peptide text is derived from it. [ ]: non-standard residue; d: D form. X1 = O=C([C@@H]1C[C@H](n2cc([C]34[CH]5[CH]6[CH]7[CH]3[Fe]6754389%10[CH]4[CH]3[CH]8[CH]9[CH]4%10)nn2)CN1[*:1])[*:2]; Cit = NC(=O)NCCC[C@H](N)C(=O)O
What was measured:
[1] = In vitro cytotoxicity, MTT assay; type: cell-based; details: human; P4-CCR5 cells, 2 hours, MTT
Experimental: (§1) P4-CCR5 cells were seeded at a density of 4×10^4 cells/well in a 96 well plate approximately 18 hours prior to experiment. […] The cells were subsequently washed and assessed for viability using a 3-(4,5-dimethylthiazol-2-yl)-2,5-diphenyltetrazolium bromide (MTT) assay of viability (previously described in Krebs et al. (1999). Concentrations were tested in triplicate in two independent assays.

[2] = test system: P4-CCR5 cells; assay: In vitro cytotoxicity, MTT assay; type: cell-based; details: concentrations as high as 0.1 mg/ml
Experimental: as §1

[3] = test system: Pseudotyped HIV-1BaL; type: cell-based; details: Table 12; HOS.CD4.CCR5 cells, 48 hours; NA = not active; read-out: IC50 (antiviral)
[4] = test system: viruses pseudotyped with the VSV-G envelope; type: cell-based
[5] = test system: mAb 17b; assay: SPR control: direct binding of peptide to mAb 17b surface; details: SPR control experiment
[6] = target: T1, HIV-1YU-2 gp120 binding to sCD4 (Human immunodeficiency virus type 1 group M subtype B, UniProt P35961); details: Table 12; 100 nM gp120; NA = not active
T1 construct: made in house; host or cells: Drosophila S2 cells (gp120); CHO cells (sCD4)
Text: (§2) Where Rhigh is the response value at high inhibitor concentrations and Rlow is response at low inhibitor concentrations. Cone is the concentration of inhibitor, and A1 and A2 are fitting parameters. At IC50 the following is true:
(§3) Under this condition, A1=Conc and is therefore taken as the desired so parameter.

[7] = target: T2, HIV-1 YU2 gp120 (Human immunodeficiency virus type 1 group M subtype B, UniProt P35961); type: binding; details: for dissociation rate constant (koff): Table 11, dissociation rate
T2 construct: made in house; host or cells: Drosophila S2 cells
Experimental: Surface plasmon resonance (SPR) interaction analyses were performed on a Biacore® 3000 optical biosensor (GE). All experiments were carried out at 25° C. using standard PBS, pH 7.4, with 0.005% Surfactant P20.
Regeneration of the surface was achieved by a one 5-second pulse of 10 mM glycine, pH 1.5.
SPR data analyses were performed using BIAEvaluation 4.0 software (GE). […] Experimental data were fitted to a simple 1:1 binding model with a parameter included for mass transport. […] The inhibition curve was converted into a calibration curve by the use of a fitting function. The fitting was done using the 4-parameter equation in BIAevaluation software: […]

[8] = target: T3, sCD4 (Homo sapiens, UniProt P01730); assay: SPR control: direct binding of peptide to sCD4 surface; details: SPR control experiment
T3 construct: soluble four domain CD4 (sCD4); made in house; host or cells: CHO cells

[9] = target: T4, HIV-1YU-2 gp120 binding to mAb 17b (Human immunodeficiency virus type 1 group M subtype B, UniProt P35961); details: Table 12; 100 nM gp120; NA = not active
T4 construct: made in house; host or cells: Drosophila S2 cells (gp120)
Text: as §2, §3

[10] = target: T5, gp120 (Human immunodeficiency virus type 1 group M subtype B, UniProt P35961); type: binding, HIV-1; details: ITC, 25° C., PBS pH 7.4
T5 construct: made in house; host or cells: Drosophila S2 cells
Experimental: FIGS. 14A-14D are a series of graphs of calorimetric titration data of gp120 with various peptides. […] Data was obtained as 25° C. in PBS, pH 7.4. Experiments in FIGS. 14A and 14B were carried out using a VP-ITC, where 2 μM gp120 in the calorimetric cell (˜1.4 mL) was titrated with 10 μL aliquots of peptide at concentration of 30 μM.
Isothermal titration calorimetric experiments were performed using high-precision calorimetric systems of model VP-ITC or ITC20 from MicroCal Inc. The titrations were performed by stepwise addition of peptide to gp120 contained in the calorimetric cell at a constant temperature of 25° C. […] For the experiments carried out in the VP-ITC the concentration of gp120 was about 2 μM and the syringe contained the peptide at a concentration about 30 μM. For the experiment carried out using ITC20 gp120 was prepared at about 4 μM and the peptide at 50-100 μM. The solutions contained within the calorimetric cells and injector syringes were prepared in PBS, pH 7.4 and thoroughly degassed to avoid bubble formation in the calorimetric cell. The heat evolved upon each injection of the peptide solution was obtained from the integral of the calorimetric signal. The heat associated with binding of a ligand to the protein in the cell was obtained by subtracting the heat of dilution from the heat of reaction.

[11] = target: T2, HIV-1 YU2 gp120; assay: biochemical; type: binding; details: Kd (affinity) for HIV-1 YU2 gp120 as measured by SPR
Experimental: All surface plasmon resonance experiments (SPR) were performed on a BIA3000 optical biosensor (Biocore, Inc., Uppsala, Sweden). […] For direct binding experiments, YU2 gp120 was immobilized on the surface (˜4000 RU); peptide analytes in PBS buffer were passed over the surface at a flow rate of 50 μL/min, with 5 minute association phase and 5 minute dissociation phase. […] The indicated analytes were passed over the surfaces at a flow rate of 50 μL/minute, with 2.5 minute association phase and 2.5 minute dissociation phase.
Data analysis was performed using BIAEvaluation® 4.0 software (Biacore Inc., NJ). The responses of a buffer injection and responses from the control surface to which the mAb 2B6R was immobilized, were subtracted to account for nonspecific binding. Experimental data were fitted to a simple 1:1 Langmuir binding model with a parameter included for mass transport. The average kinetic parameters (association [ka] and dissociation [kd] rates) generated from a minimum of four datasets were used to define equilibrium association (KA) and dissociation constants (KD).

[12] = test system: HIV-1 strain BaL; assay: Combination of HNG-156 and cyanovirin-N, HIV-1 BaL infection of P4-CCR5 cells; type: cell-based
[13] = test system: HIV-1 strain BaL; details: P4-CCR5 cells; Gopi et al., 2008; read-out: IC50, inhibition of infection by HIV-1 BaL; cited from earlier work
[14] = test system: P4-CCR5 cells; details: at concentrations corresponding to IC50 values; Gopi et al., 2008; cited from earlier work
[15] = test system: HIV-1 strain BaL; assay: Inhibition of HIV-1 infection, whole virus assay in P4-CCR5 cells; type: cell-based; details: result of one trial

Row | Compound | IC50 [3] | dissociation rate constant (koff) [7] | ΔH [10] | −TΔS [10] | IC50 [13] | impact on cell viability [14] | also measured
1 | CC[C@H](C)[C@H](NC(=O)[C@@H](N)CCCNC(=N)N)C(=O)N[C@@H](CC(N)=O)C(=O)N[C@@H](CC(N)=O)C(=O)N[C@H](C(=O)N1C[C@@H](n2cc([C]34[CH]5[CH]6[CH]7[CH]3[Fe]6754389%10[CH]4[CH]3[CH]8[CH]9[CH]4%10)nn2)C[C@H]1C(=O)N[C@@H](Cc1c[nH]c2ccccc12)C(=O)N[C@@H](CO)C(=O)N[C@@H](CCC(=O)O)C(=O)N[C@@H](C)C(=O)N[C@@H](CCSC)C(=O)N[C@@H](CCSC)C(N)=O)[C@@H](C)CC (stereo partly shown) [HNG-156] |  |  |  |  |  |  | CC50 at 2 h [1]: > 59000 nM; effect on P4-CCR5 cell viability [2]: no effect
2 | CSCC[C@H](NC(=O)[C@H](CCSC)NC(=O)[C@H](C)NC(=O)[C@H](CCC(=O)O)NC(=O)[C@H](CO)NC(=O)[C@H](Cc1c[nH]c2ccccc12)NC(=O)[C@@H]1C[C@H](n2cc([C]34[CH]5[CH]6[CH]7[CH]3[Fe]6754389%10[CH]4[CH]3[CH]8[CH]9[CH]4%10)nn2)CN1)C(N)=O (stereo partly shown) [UM10] (H-[X1]WSEAMM-NH2; N-terminus and C-terminus assumed) | 35000 ± 15000 nM | 8.90E−04 ± 1.2 1/S |  |  |  |  | inhibition of negative control viruses pseudotyped with the VSV envelope [4]: Neither of these conjugates inhibited; direct binding to 17b [5]: neither UM10 nor UM12 exhibited direct binding; sCD4 (IC50) [6]: unable to inhibit; also recorded: no IC50 value could be calculated; affinity relative to 12 mer peptide of HNG-156 ([7]; lower affinity): 100 fold; direct binding to sCD4 [8]: neither UM10 nor UM12 exhibited direct binding; mAb 17b (IC50) [9]: unable to inhibit
3 | CC[C@H](C)[C@H](NC(=O)[C@@H](N)CCCNC(=N)N)C(=O)N[C@@H](CC(N)=O)C(=O)N[C@@H](CC(N)=O)C(=O)N[C@H](C(=O)N1C[C@@H](n2cc([C]34[CH]5[CH]6[CH]7[CH]3[Fe]6754389%10[CH]4[CH]3[CH]8[CH]9[CH]4%10)nn2)C[C@H]1C(=O)N[C@@H](Cc1c[nH]c2ccccc12)C(N)=O)[C@@H](C)CC (stereo partly shown) [UM12] (H-RINNI[X1]W-NH2; N-terminus and C-terminus assumed) | 6800 ± 300 nM | 1.8E−03 ± 1.3 1/S | -19.7 kcal/mol | +9.9 kcal/mol |  |  | inhibition of negative control viruses pseudotyped with the VSV envelope [4]: Neither of these conjugates inhibited; direct binding to 17b [5]: neither UM10 nor UM12 exhibited direct binding; direct binding to sCD4 [8]: neither UM10 nor UM12 exhibited direct binding
4 | CC[C@H](C)[C@H](NC(=O)[C@@H](N)CCC(=O)O)C(=O)N[C@@H](CC(N)=O)C(=O)N[C@@H](CC(N)=O)C(=O)N[C@H](C(=O)N1C[C@@H](n2cc([C]34[CH]5[CH]6[CH]7[CH]3[Fe]6754389%10[CH]4[CH]3[CH]8[CH]9[CH]4%10)nn2)C[C@H]1C(=O)N[C@@H](Cc1c[nH]c2ccccc12)C(=O)N[C@@H](CO)C(N)=O)[C@@H](C)CC (stereo partly shown) [UM13] (H-EINNI[X1]WS-NH2; N-terminus and C-terminus assumed) | 1200 ± 300 nM | 3.1E−03 ± 2 1/S |  |  |  |  | 
5 | CC[C@H](C)[C@H](NC(=O)[C@H](CC(N)=O)NC(=O)[C@@H](N)CC(N)=O)C(=O)N1C[C@@H](n2cc([C]34[CH]5[CH]6[CH]7[CH]3[Fe]6754389%10[CH]4[CH]3[CH]8[CH]9[CH]4%10)nn2)C[C@H]1C(=O)N[C@@H](Cc1c[nH]c2ccccc12)C(N)=O (stereo partly shown) [UM17] (H-NNI[X1]W-NH2) | 33000 ± 11000 nM | 6.0E−03 ± 1.25 1/S | -13.2 kcal/mol | +3.3 kcal/mol |  |  | 
6 | CC[C@H](C)[C@H](NC(=O)[C@H](CC(N)=O)NC(=O)[C@H](CC(N)=O)NC(=O)[C@@H](N)CCCNC(N)=O)C(=O)N1C[C@@H](n2cc([C]34[CH]5[CH]6[CH]7[CH]3[Fe]6754389%10[CH]4[CH]3[CH]8[CH]9[CH]4%10)nn2)C[C@H]1C(=O)N[C@@H](Cc1c[nH]c2ccccc12)C(=O)N[C@@H](CO)C(N)=O (stereo partly shown) [UM24] (H-[Cit]NNI[X1]WS-NH2; N-terminus and C-terminus assumed) |  | 2.9E−03 ± 1.2 1/S | -16.7 kcal/mol | +6.3 kcal/mol |  |  | Kd [11]: ~21 nM
7 | RINNIPWSEAMM [HNG-113] |  |  |  |  | 156 nM | no or minimal impact | synergy with CV-N [12]: does not synergize
8 | RINNIPWSEAMM [HNG-124] |  |  |  |  | 418 nM | no or minimal impact | 
9 | RINNIPWSEAMM [HNG-137] |  |  |  |  | 610 nM | no or minimal impact | 
10 | dextran sulfate |  |  |  |  |  |  | IC50 [15]: 9800 nM; IC50, inhibition of infection by HIV-1 BaL [15]: 4.9 µg/mL; Viral infectivity inhibition IC50 ([12]; agent alone): 0.900 microgram/milliliter
